For test [1], the target named is T1, human 5-HT1A receptor subtype (5-HT1A CHO cells) (Homo sapiens, UniProt P08908).
T1 construct: expressed in transfected cells
T1 sequence (P08908 1-422): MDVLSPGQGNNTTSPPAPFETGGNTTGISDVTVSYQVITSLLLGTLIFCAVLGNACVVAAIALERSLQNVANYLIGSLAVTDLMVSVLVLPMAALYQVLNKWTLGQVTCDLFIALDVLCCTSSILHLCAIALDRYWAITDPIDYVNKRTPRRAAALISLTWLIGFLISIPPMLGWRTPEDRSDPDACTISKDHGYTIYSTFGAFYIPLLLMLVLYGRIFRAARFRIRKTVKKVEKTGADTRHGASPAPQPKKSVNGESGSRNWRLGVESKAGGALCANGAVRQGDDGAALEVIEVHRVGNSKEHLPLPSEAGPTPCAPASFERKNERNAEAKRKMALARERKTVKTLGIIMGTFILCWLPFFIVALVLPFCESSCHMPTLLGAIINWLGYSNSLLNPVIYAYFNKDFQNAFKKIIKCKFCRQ
Put plainly: forskolin-stimulated cAMP formation (cAMP SPA assay). In kind it is cell-based. Conditions: forskolin 1 uM. As for the experimental part: (§1) The PCR cloning of the human 5-HT1A receptor subtype from a human genomic library has been described previously Chanda et al., Mol. Pharmacol., 43:516 (1993). A stable Chinese hamster ovary cell line expressing the human 5-HT1A receptor subtype (5-HT1A.CH2O cells) was employed throughout this study. Cells were maintained in DMEM supplemented with 10% fetal calf serum, non-essential amino acids and penicillin/streptomycin.
The following assays were performed by incubating the cells with DMEM containing 25 mM HEPES, 5 mM theophylline and 10 μM pargyline for a period of 20 minutes at 37° C. Functional activity was assessed by treating the cells with forskolin (1 uM final concentration) followed immediately by test compound (6 concentrations) for an additional 10 minutes at 37° C. In separate experiments, 6 concentrations of antagonist were preincubated for 20 minutes prior to the addition of 10 nM 8-OH-DPAT and forskolin. The reaction was terminated by removal of the media and addition of 0.5 ml ice cold assay buffer. Plates were stored at −20° C. prior to assessment of cAMP formation by a cAMP SPA assay (Amersham).

Test [2] addresses T2, human 5-HT1A receptor subtype (Homo sapiens, UniProt P08908).
T2 construct: expressed in transfected cells
T2 sequence (P08908 1-422): T1 sequence (P08908 1-422)
Put plainly: 5-HT1A receptor binding, [3H]8-OH-DPAT, CHO cell membranes. Conditions: [3H]8-OH-DPAT 1.5 nM. On the procedure: as §1
Cells were grown to 95-100% confluency as a monolayer before membranes were harvested for binding studies. Cells were gently scraped from the culture plates, transferred to centrifuge tubes, and washed twice by centrifugation (2000 rpm for 10 min., 4° C.) in buffer (50 mM Tris; pH 7.5). The resulting pellets were aliquoted and placed at −80° C. On the day of assay, the cells were thawed on ice, and resuspended in buffer. Studies were conducted using [^3H]8-OH-DPAT as the radioligand. The binding assay was performed in 96 well microtiter plates in a final total volume of 250 μL of buffer. Competition experiments were performed by using 7 concentrations of unlabelled drug and a final ligand concentration of 1.5 nM. Non-specific binding was determined in the presence of 10 μM 5HT. Saturation analysis was conducted by using [^3H]8-OH-DPAT at concentaritions ranging from 0.3-30 nm Following a 30 minute incubation at room temperature, the reaction was terminated by the addition of ice cold buffer and rapid filtration using a M-96 Brandel Cell Harvester (Gaithersburg, Md.) through a GF/B filter presoaked for 30 minutes in 0.5% polyethylenenimine.

The target in test [3] is T3, 5-HT1A cloned receptor membrane fragments (Homo sapiens, UniProt P08908).
T3 construct: expressed in transfected cells
T3 sequence (P08908 1-422): T1 sequence (P08908 1-422)
Put plainly: [35S]-GTPγS binding assay. In kind it is biochemical. As to conditions: relative to excess 8-OH-DPAT maximum agonist response. On the procedure: The [^35S]-GTPγS biding assay was similar to that used by Lazarenno and Birdsall, Br. J. Pharmacol. 109:1120 (1993). Briefly, 5-HT1A cloned receptor membrane fragments (as used for 5-HT1A receptor binding assays were stored at −70° C. unit needed. When needed, membranes were rapidly thawed, centrifuged at […] for 10 minutes and resuspended at 4° C. for 10 minutes in assay buffer (25 mM HEPES, 3 mM MgCl2, 100 mM NaCl, 1 mM EDTA, 10 uM GDP, […], pH 8.0). These membranes were then incubated for 30 minutes at 30+ C. with [^35S]GTPgS (1 nM) in the presence of vehicle, test compound (one to eight concentrations), or excess 8-OH-DPAT to define maximum agonist response. All reactions are terminated by the addition of ice cold Tris buffer followed by rapid filtration using a Tom Tech® filtration device to separate bound from free [^35S]GTPgS. Agonists produce an increase in the amount of [^35S]GTPgS bound whereas antagonists produce no increase in binding. Bound radioactivity was counted and analyzed as above.

The next test concerns the target T4, serotonin transporter (Rattus norvegicus, UniProt P31652).
T4 construct: frontal cortical membranes prepared from male Sprague-Dawley rats; from tissue; host or cells: rat frontal cortex membranes
The test is described as follows: serotonin transporter affinity, 3H-paroxetine binding, frontal cortical membranes. As to conditions: 3H-paroxetine 0.1 nM; read-out: ST (Ki, nM,). On the procedure: A protocol similar to that used by Cheetham et al., Neuropharmacol. […] Briefly, frontal cortical membranes prepared from male Sprague-Dawley rats were incubated with ^3H-paroxetine (0.1 nM) for 60 minutes at 25° C. […] All reactions are terminated by the addition of ice cold Tris buffer followed by rapid filtration using a Tom Tech filtration device to separate bound from free ^3H-paroxetine.

The structures appear in SMILES notation.

T4 sequence (P31652 whole entry): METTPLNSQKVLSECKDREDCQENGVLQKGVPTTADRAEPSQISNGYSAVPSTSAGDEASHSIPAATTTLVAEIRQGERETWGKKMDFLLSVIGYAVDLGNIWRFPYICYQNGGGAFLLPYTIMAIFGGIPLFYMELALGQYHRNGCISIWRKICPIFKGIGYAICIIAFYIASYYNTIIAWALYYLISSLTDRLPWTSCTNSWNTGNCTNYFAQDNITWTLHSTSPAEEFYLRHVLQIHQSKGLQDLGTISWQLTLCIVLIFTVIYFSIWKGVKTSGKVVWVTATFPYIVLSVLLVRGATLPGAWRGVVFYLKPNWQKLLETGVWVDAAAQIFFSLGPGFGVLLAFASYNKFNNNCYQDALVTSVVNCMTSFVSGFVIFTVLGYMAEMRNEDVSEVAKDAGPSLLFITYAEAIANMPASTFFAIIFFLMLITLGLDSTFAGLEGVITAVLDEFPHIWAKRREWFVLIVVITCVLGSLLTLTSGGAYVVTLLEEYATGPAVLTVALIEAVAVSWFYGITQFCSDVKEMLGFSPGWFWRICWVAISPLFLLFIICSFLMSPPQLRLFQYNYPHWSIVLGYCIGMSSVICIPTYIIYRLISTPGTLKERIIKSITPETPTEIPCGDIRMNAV

By Emax is commonly meant the greatest response seen or fitted, relative to the assay's reference. Usually Ki stands for the dissociation constant of the complex between target and ligand, obtained from inhibition or displacement. In the case of `Fc1ccc2[nH]cc([C@H]3CC[C@@H](N4CCN(c5cccc6[nH]ccc56)CC4)CC3)c2c1` [Example 3a, 5-Fluoro-3-[cis-4-[4-(1H-indol-4-yl)-1-piperazinyl]cyclohexyl]-1H-indole], the maximal effect (Emax) turned out to be 0% in test [1] and 10% in test [3]. This compound had a Ki in test [2] of 36.7 nM.
On to `N#Cc1ccc2[nH]cc([C@H]3CC[C@@H](N4CCN(c5cccc6[nH]ccc56)CC4)CC3)c2c1` [Example 7a, 3-{4-[(1,4-cis)-4-(1H-Indol-4-yl)-piperazinyl-1-yl]cyclohexyl}-1H-indole-5-carbonitrile], for which the maximum response (Emax) in test [1] and in test [3] was 0% each time. For the same compound, the Ki on serotonin transporter turned out to be 1.62 nM.
Compound `N#Cc1ccc2[nH]cc([C@H]3CC[C@H](N4CCN(c5cccc6[nH]ccc56)CC4)CC3)c2c1` [Example 7b, 3-{4-[(1,4-trans)-4-(1H-Indol-4-yl)-piperazinyl-1-yl]cyclohexyl}-1H-indole-5-carbonitrile] showed an Emax in test [1] of 83%. The Ki on serotonin transporter amounted to 4.19 nM.
For `c1cc(N2CCN([C@H]3CC[C@H](c4c[nH]c5ncccc54)CC3)CC2)c2cc[nH]c2c1` [Example 10b, 3-{(1,4-trans)-4-[4-(1H-Indole-4-yl)-piperazin-1-yl]-cyclohexyl}-1H-pyrrolo[2,3-b]pyridine], the Emax in test [1] came out at 79%; in test [3], 14%. This compound gave a Ki in test [2] of 7.78 nM.
The like results for `COc1ccccc1C1CCN([C@H]2CC[C@H](c3c[nH]c4ccc(F)cc43)CC2)CC1` [Example 19b, 5-Fluoro-3-{(1,4-trans)-4-[4-(2-methoxy-phenyl)-piperidin-1-yl]-cyclohexyl}-1H-indole] were, in that order, 92%, 74% and 26.2 nM.
For the compound `COc1ccc2[nH]cc([C@H]3CC[C@H](N4CCN(c5ccccc5OC)CC4)CC3)c2c1` [Example 20b, 5-Methoxy-3-{(1,4-trans)-4-[4-(2-methoxy-phenyl)-piperazin-1-yl]-cyclohexyl}-1H-indole], the maximal effect (Emax) in test [1] was 75.5%; in test [3], 33%. For the same compound, the inhibitory constant (Ki) in test [2] was 14.9 nM.
As for `Fc1ccc2[nH]cc([C@H]3CC[C@@H](N4CCN(c5cccc6c5OCCO6)CC4)CC3)c2c1` [Example 24a, 3-{(1,4-cis)-4-[4-(2,3-Dihydro-benzo[1,4]dioxin-5-yl)-piperazin-1-yl]-cyclohexyl}-5-fluoro-1H-indole], the Emax in test [1] is 81%. Moreover, the Ki at serotonin transporter turned out to be 6.9 nM; in test [2] it was 65.7 nM.
In test [1], `Fc1ccc2c(c1)[nH]cc2[C@H]1CC[C@@H](N2CCN(c3cccc4c3OCCO4)CC2)CC1` [Example 25a, 3-{(1,4-cis)-4-[4-(2,3-Dihydro-benzo[1,4]dioxin-5-yl)-piperazin-1-yl]-cyclohexyl}-6-fluoro-1H-indole] gave a maximal effect (Emax) of 0%. Moreover, the Ki at serotonin transporter amounted to 63 nM; in test [2], 67.7 nM.
With `Fc1ccc2c(c1)[nH]cc2[C@H]1CC[C@H](N2CCN(c3cccc4c3OCCO4)CC2)CC1` [Example 25b, 3-{(1,4-trans)-4-[4-(2,3-Dihydro-benzo[1,4]dioxin-5-yl)-piperazin-1-yl]-cyclohexyl}-6-fluoro-1H-indole], the Ki at serotonin transporter was 58 nM; in test [2], 9.66 nM. For the same compound, the Emax in test [3] was found to be 46%.
Turning to `N#Cc1ccc2[nH]cc([C@H]3CC[C@@H](N4CCN(c5cccc6c5OCCO6)CC4)CC3)c2c1` [Example 26a, 3-{(1,4-cis)-4-[4-(2,3-Dihydro-benzo[1,4]dioxin-5-yl)-piperazin-1-yl]-cyclohexyl}-1H-indole-5-carbonitrile], the Emax was 0% in test [1] and 18% in test [3]. Besides, the Ki at serotonin transporter came to 4.1 nM; in test [2], 59.1 nM.
As for `N#Cc1ccc2[nH]cc([C@H]3CC[C@H](N4CCN(c5cccc6c5OCCO6)CC4)CC3)c2c1` [Example 26b, 3-{(1,4-trans)-4-[4-(2,3-Dihydro-benzo[1,4]dioxin-5-yl)-piperazin-1-yl]-cyclohexyl}-1H-indole-5-carbonitrile], the results for the Ki (on serotonin transporter; in test [2]) were 23 nM and 8.5 nM, respectively. In test [3], this compound registered an Emax of 39%.
`N#Cc1ccc2[nH]cc([C@H]3CC[C@@H](N4CCN(c5cccc6cccnc56)CC4)CC3)c2c1` [Example 29a, 3-[(1,4-cis)-4-(4-Quinolin-8-yl-piperazin-1-yl)-cyclohexyl]-1H-indole-5-carbonitrile] had an Emax in test [1] of 0%. Moreover, at serotonin transporter, the Ki worked out at 2.25 nM.
The compound `N#Cc1ccc2[nH]cc([C@H]3CC[C@H](N4CCN(c5cccc6cccnc56)CC4)CC3)c2c1` [Example 29b, 3-[(1,4-trans)-4-(4-Quinolin-8-yl-piperazin-1-yl)-cyclohexyl]-1H-indole-5-carbonitrile] yielded an Emax in test [3] of 70%.
Take `Cn1cc([C@H]2CC[C@@H](N3CCN(c4cccc5cccnc45)CC3)CC2)c2cc(C#N)ccc21` [Example 30, 1-Methyl-3-[(1,4-cis)-4-(4-quinolin-8-yl-piperazin-1-yl)-cyclohexyl]-1H-indole-5-carbonitrile]: the maximal effect (Emax) in test [1] stood at 95%. Besides, the Ki at serotonin transporter is 1.25 nM; in test [2], 24.5 nM.

The values are drawn from patent publication US6465482B2, “Arylpiperazinyl-cyclohexyl indole derivatives for the treatment of depression” (Wyeth, priority 1999, dated 2002).
